Results as given in US10702556B2, “Compositions and methods for inducing angiogenesis” (MINOVIA THERAPEUTICS LTD., priority 2012, dated 2020).

Tested on: mouse aortic rings
Test: Mouse aortic ring sprouting (ex-vivo angiogenesis)
Format: cell-based
Method: Thoracic aorta were removed from female C57/BL mice and cut into 0.5 mm rings. Aortic rings were incubated in serum-free medium and either left untreated or treated with 0.5 μM Rotenone for 4 hours. To assess mitochondria effect on sprouting of aortic rings, half of the non-treated rings were washed and incubated with 25 μg of C57/BL mouse placental mitochondria in 2 ml serum-free medium. After 24 hours the rings were embedded in rat tail collagen, one ring per well in a 96 wells plate. After 8 days in culture the level of sprouting was evaluated by counting the number of vessels per ring.
The effect of VEGF, mitochondria and mitochondria+VEGF on sprouting of aortic rings in-vitro was examined Mouse aortic rings were prepared as described in example 7 and were either left un-treated (NT), treated with 25 μg mouse placental mitochondria in 2 ml OptiMem medium for 24 h (Mito), incubated in OptiMem medium containing 2.5% FBS and 30 ng/ml mouse VEGF for 48 h (VEGF) or treated with both mitochondria and VEGF (VEGF+Mito). The number of new blood vessels sprouting from the aortic rings was counted on day 8.
Mouse aortic rings were prepared as described in example 7 and were either left un-treated or treated with increasing amounts (2-350 μg) of mouse placental mitochondria in 2 ml OptiMem medium for 24 h. The number of new blood vessels sprouting from the aortic rings was counted on day 7.
The effect of mitochondria on the number of blood vessels was evaluated in a mouse aortic ring model. Mouse aortic rings were prepared as described in example 7 and were either left un-treated (Control), treated for 24 h with 25 μg of mouse placental mitochondria (Mito), treated with mitochondria that were inhibited by 2 μM of mitochondria complex I inhibitor Rotenone or treated with mitochondria that were inhibited with 5 μM of the ATP Synthase inhibitor Oligomycin for 24 h. The number of new blood vessels sprouting from the aortic rings was counted on day 8.

| Compound | number of vessels per ring (sprouting) (0.5 μM Rotenone for 4 hours, 8 days in culture) | number of new blood vessels sprouting from the aortic rings, comparison between treated groups (25 μg mitochondria 24 h, 30 ng/ml mouse VEGF 48 h, or both, day 8) |
| --- | --- | --- |
| C=C(C)[C@H]1Cc2c(ccc3c2O[C@@H]2COc4cc(OC)c(OC)cc4[C@@H]2C3=O)O1 [Rotenone] | blocked the sprouting almost completely |  |
| VEGF |  | no significant difference |
